Data published in publication PMC7997389 (Biochemical and Biophysical Research Communications, 2021).

Experiments:
[1] = test system: SARS-CoV-2-GHB-03021/2020; conditions: hamster, in vivo
[2] = molecular target: human cathepsin L (Homo sapiens, UniProt P07711); experiment: human cathepsin L biochemical assay; conditions: 3CLpro versus cathepsin L
[3] = test system: SARS-CoV-2; conditions: monotherapy; cited from earlier work
[4] = test system: SARS-CoV-2; conditions: cited from earlier work
[5] = test system: SARS-CoV-2; conditions: cited from earlier work; remark: listed apart in the source
[6] = test system: 3CLpro; conditions: cited from earlier work
[7] = Cytotoxicity in HeLa cells; format: cell-based; conditions: human
[8] = test system: human alpha-coronavirus 229E; experiment: organism not typed; format: cell-based; conditions: Huh-7, 96 h, read-out: α-CoV 229E (Huh-7) EC50

Sequence of human cathepsin L (P07711 114-333): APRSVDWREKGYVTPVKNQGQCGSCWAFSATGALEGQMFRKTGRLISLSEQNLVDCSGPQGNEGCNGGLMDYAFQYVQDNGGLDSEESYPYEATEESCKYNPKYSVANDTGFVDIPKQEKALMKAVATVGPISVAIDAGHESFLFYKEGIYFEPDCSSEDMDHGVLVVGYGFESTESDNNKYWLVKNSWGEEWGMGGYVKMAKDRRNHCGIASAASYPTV

Structure (SMILES): CC(C)C(=O)OC[C@H]1O[C@@H](n2ccc(NO)nc2=O)[C@H](O)[C@@H]1O [EIDD-2801]
- reduction in viral RNA copies per mg of lung tissue [1]: 2.0 log10
- reduction of infectious virus titers in the lungs [1]: 4.1 log10 TCID50 per mg

Structure (SMILES): CC(C)C[C@H](NC(=O)OCc1ccccc1)C(=O)N[C@@H](CC1CCNC1=O)C(O)S(=O)(=O)[O-].[Na+] (stereo partly shown) [GC-376]
- selectivity against human cathepsin L in comparison with ALG-097111 [2]: significantly less selective
- antiviral effect in a mouse model of SARS-CoV-2 infection [3]: failed to show a clear antiviral effect
- antiviral activity in the K18-hACE2 SARS-CoV-2 infection mouse model [4]: modest antiviral activity

Structure (SMILES): CN1CCN(C(=O)N[C@@H](Cc2ccccc2)C(=O)N[C@H](/C=C/S(=O)(=O)c2ccccc2)CCc2ccccc2)CC1 [K117777]
- antiviral effect when TMPRSS2 was expressed ([5]; A549-ACE2 expressing TMPRSS2): abolished
- inhibition of SARS-CoV-2 in cells ([5]; VeroE6, A549-ACE2 and HeLa-ACE2): potent inhibition
- inhibitory effect on the 3CLpro [6]: lacks an inhibitory effect

Structure (SMILES): CCC(CC)COC(=O)[C@H](C)N[P@](=O)(OC[C@H]1O[C@@](C#N)(c2ccc3c(N)ncnn23)[C@H](O)[C@@H]1O)Oc1ccccc1 [Remdesivir]
- CC50 [7]: > 5000 nM
- EC50 [8]: 14.5 ± 3.48 nM
